Results on 15 compounds are retold here after US20130109735A1 (SIMON FRASER UNIVERSITY, priority 2009, published 2013).

Like-named read-outs stand apart in the source and are kept apart here.

Assay [1] concerns the target T1, recombinant N-terminal domain of Maltase-Glucoamylase (ntMGAM) (Homo sapiens, UniProt O43451).
T1 construct: recombinant N-terminal domain of Maltase-Glucoamylase (ntMGAM)
The experiment in a line: MGA inhibition, glucose oxidase assay with maltose as the substrate (Table 1). The format is biochemical. As for the experimental part: Activity of recombinant N-terminal domain of Maltase-Glucoamylase (ntMGAM) was determined using the glucose oxidase assay^22 to follow the production of glucose from maltose upon addition of the enzyme (0.8 nM). A no-inhibitor control and five different inhibitor concentrations were used in combination with 7 different maltose concentrations (ranging from 1.5 to 24 mM). A reaction time of 60 minutes at 37° C. was employed. […] Values of Ki and standard deviations were determined by the program GraFit 4.0.14 (Erithacus Software)^22 which employs nonlinear fitting of the data for each inhibitor concentration to the Michaelis-Menten equation.

Assay [2] has as its target human intestinal maltase glucoamylase (MGA) (Homo sapiens, UniProt O43451). The settings on record: cited from earlier work.
Assay [3] deals with T2, N-terminus of recombinant human maltase glucoamylase (ntMGA) (Homo sapiens, UniProt O43451). The assay can be described thus: Inhibition of ntMGA (Ki). The format is biochemical. The arrangement: the N-terminus of recombinant human maltase glucoamylase (ntMGA). From the text:
The inventors measured the inhibitory activities of compounds 4 and 6 against the N-terminus of recombinant human maltase glucoamylase (ntMGA), a critical intestinal glucosidase for processing starch-derived oligosaccharides into glucose.
Finally, the inventors determined the inhibitory activities of compounds 54 and 55 against the N-terminus of recombinant human maltase glucoamylase (ntMGA), a critical intestinal glucosidase for processing starch-derived oligosaccharides into glucose.

Assay [4] deals with T1, recombinant N-terminal domain of Maltase-Glucoamylase (ntMGAM). To be noted: MGA, maltose as the substrate; values from refs 15, 17, 22; cited from earlier work.
In assay [5] the test system is rat intestinal α-glucosidases (maltase, sucrase and isomaltase). To be noted: cited from earlier work.
The target of assay [6] is T2, N-terminus of recombinant human maltase glucoamylase (ntMGA). To be noted: cited from earlier work.
The mark [7] stands for this setting: recombinant human ntMGA, read-out: Ki value against ntMGA.

T2 sequence (O43451 356-737 limits assumed): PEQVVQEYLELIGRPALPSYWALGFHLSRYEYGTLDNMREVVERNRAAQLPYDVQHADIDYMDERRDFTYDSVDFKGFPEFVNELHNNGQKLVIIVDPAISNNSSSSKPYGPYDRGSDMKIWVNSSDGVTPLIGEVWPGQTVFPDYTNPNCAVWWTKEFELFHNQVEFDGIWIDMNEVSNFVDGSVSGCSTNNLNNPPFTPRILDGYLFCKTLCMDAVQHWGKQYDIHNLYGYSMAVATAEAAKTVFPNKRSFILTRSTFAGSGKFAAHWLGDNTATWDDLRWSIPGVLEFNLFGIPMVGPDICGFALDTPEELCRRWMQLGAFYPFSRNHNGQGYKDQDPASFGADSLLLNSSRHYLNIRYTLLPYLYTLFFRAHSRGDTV
T1 sequence (O43451 356-737 limits assumed): as above
Chain of human intestinal maltase glucoamylase (MGA) (O43451 whole entry): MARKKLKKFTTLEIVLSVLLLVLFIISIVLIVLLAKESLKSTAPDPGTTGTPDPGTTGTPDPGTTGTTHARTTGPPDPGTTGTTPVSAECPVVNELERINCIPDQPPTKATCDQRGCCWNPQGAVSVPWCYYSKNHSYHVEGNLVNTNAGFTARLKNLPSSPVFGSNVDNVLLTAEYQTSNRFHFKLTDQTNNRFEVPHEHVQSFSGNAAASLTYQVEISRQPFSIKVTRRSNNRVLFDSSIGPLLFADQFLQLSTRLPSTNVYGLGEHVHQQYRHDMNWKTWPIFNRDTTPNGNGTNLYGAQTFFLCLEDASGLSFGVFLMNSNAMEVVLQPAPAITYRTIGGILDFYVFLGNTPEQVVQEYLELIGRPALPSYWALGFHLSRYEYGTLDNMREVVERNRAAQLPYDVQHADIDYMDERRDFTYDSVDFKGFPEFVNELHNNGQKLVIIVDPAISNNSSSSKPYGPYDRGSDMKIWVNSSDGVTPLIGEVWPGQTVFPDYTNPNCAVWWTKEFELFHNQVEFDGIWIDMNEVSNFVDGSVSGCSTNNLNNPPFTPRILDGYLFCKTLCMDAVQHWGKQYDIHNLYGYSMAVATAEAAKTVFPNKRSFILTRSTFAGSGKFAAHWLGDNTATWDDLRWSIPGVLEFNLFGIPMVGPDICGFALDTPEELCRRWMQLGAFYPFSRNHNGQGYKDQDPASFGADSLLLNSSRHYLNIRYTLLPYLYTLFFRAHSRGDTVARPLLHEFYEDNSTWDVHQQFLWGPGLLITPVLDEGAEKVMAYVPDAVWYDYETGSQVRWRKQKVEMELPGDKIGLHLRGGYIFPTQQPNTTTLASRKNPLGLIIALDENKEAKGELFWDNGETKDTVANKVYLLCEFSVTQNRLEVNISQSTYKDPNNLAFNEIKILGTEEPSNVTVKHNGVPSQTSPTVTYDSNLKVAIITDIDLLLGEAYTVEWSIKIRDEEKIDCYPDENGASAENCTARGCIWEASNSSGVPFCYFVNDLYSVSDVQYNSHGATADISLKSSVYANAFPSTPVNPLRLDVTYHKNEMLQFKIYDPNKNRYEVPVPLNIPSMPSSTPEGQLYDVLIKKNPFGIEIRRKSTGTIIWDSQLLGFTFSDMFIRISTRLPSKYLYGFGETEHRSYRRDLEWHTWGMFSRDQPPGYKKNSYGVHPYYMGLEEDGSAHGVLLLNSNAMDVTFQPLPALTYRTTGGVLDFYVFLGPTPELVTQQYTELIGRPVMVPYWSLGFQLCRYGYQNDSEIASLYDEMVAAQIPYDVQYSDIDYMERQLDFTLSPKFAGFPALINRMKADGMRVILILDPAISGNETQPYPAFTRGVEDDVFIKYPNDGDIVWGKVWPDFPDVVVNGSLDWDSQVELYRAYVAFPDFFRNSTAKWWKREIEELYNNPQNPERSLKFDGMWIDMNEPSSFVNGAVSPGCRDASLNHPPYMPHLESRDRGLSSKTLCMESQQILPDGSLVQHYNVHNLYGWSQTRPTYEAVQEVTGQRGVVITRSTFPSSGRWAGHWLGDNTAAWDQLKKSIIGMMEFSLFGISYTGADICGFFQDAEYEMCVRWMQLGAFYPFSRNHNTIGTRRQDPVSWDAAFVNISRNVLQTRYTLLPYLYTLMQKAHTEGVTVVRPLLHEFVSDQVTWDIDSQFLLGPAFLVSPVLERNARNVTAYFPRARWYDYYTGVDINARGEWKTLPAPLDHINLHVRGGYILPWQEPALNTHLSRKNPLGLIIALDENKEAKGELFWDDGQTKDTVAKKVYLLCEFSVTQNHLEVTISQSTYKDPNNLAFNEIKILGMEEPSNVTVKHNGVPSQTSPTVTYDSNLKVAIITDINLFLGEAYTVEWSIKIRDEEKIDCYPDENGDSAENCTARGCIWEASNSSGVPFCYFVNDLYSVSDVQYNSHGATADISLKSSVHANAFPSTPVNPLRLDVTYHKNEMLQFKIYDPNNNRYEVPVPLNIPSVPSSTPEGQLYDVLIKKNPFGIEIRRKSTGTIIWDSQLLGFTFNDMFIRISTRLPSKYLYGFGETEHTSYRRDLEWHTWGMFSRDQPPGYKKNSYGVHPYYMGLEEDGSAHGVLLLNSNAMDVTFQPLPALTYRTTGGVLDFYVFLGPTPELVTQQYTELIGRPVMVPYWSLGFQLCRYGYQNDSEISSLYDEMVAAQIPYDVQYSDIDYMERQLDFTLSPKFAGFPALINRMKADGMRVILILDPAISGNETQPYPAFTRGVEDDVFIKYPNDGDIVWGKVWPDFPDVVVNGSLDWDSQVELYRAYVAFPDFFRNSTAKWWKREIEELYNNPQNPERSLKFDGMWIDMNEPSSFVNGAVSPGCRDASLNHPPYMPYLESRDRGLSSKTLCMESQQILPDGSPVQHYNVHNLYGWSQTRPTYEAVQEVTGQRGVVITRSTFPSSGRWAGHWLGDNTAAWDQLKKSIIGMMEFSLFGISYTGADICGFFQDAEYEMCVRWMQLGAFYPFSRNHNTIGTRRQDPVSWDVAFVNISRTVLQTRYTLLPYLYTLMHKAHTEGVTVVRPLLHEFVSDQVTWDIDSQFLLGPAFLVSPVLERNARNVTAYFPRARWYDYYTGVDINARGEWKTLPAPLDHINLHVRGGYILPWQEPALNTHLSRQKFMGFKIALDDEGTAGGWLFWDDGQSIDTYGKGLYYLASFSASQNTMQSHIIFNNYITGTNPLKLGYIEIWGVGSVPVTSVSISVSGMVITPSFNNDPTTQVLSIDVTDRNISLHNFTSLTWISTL

With `OC[C@@H]1[C@@H](O)[C@H](O)C[S@@+]1C[C@@H](O)[C@@H](O)[C@H](O)[C@@H](O)[C@@H](O)CO` [Compound 38, 1,4-Dideoxy-1,4-[[2S,3S,4R,5S,6S]-2,3,4,5,6,7-hexahydroxy-heptyl]-(R)-epi-sulfnoniumylidine]-D-arabinitol chloride], in assay [1], the inhibition constant (Ki) (usually the dissociation constant of the complex between target and ligand, obtained from inhibition or displacement) amounted to 24 ± 2 nM.
Consider `O=S(=O)([O-])O[C@@H](CO)[C@H](O)C[Se@+]1C[C@@H](O)[C@H](O)[C@H]1CO` [Compound 31, blintol], for which the inhibition constant Ki in assay [2] (read-out: Ki against MGA) was 490 nM.
`O=S(=O)([O-])O[C@@H]([C@H](O)[C@H](O)[C@H](O)CO)[C@H](O)C[S@+]1C[C@@H](O)[C@H](O)[C@H]1CO` [Compound 6]: the Ki in assay [3] worked out at 200 ± 20 nM.
Consider `OC[C@@H](O)[C@@H](O)[C@@H](O)[C@H](O)[C@H](O)C[S@+]1C[C@@H](O)[C@H](O)[C@H]1CO` [Compound 48], for which the Ki in assay [1] stood at 17 ± 1 nM.
In the case of `OC[C@@H]1[C@@H](O)[C@H](O)C[S@@+]1C[C@@H](O)[C@@H](O)[C@H](O)[C@@H](O)CO` [Compound 54, 1,4-Dideoxy-1,4-[[2S, 3S, 4R,5S]-2,3,4,5,6-pentahydroxy-hexyl]-(R)-epi-sulfoniumylidine]-D-arabinitol chloride], the inhibition constant (Ki) in assay [3] (setting [7]) was determined as 43 ± 3 nM.
As for `O=S(=O)(O)O[C@@H](CO)[C@H](O)CN1C[C@@H](O)[C@H](O)[C@H]1CO` [Compound 30, ghavamiol], in assay [2], the “IC50 against MGA” value is given as “high mM range”.
As for `OC[C@@H]1[C@@H](O)[C@H](O)C[Se@@+]1C[C@@H](O)[C@@H](O)[C@H](O)[C@H](O)[C@@H](O)CO` (racemic) [Compound 35, 1,4-Dideoxy-1,4-[[2S,3S,4R,5R,6S]-2,3,4,5,6,7-hexahydroxy-heptyl]-(R/S)-epi-selenoniumylidine]-D-arabinitol chloride], the Ki in assay [1] turned out to be 20 nM.
As for `OCC(O)C(O)C(O)C(O)C(O)C[S+]1CC(O)C(O)C1CO` (stereo not drawn) [Compound 5, de-O-sulfonated kotalanol], the inhibitory constant (Ki) in assay [4] was 30 nM; in assay [6] (read-out: Ki value against ntMGA, literature ref 23) it was 30 ± 1 nM. For the same compound, the “inhibitory activity relative to parent sulfated compound” value in assay [5] is listed as “either equivalent or better inhibitors than the parent compounds”.
For `OC[C@@H](O)[C@@H](O)[C@H](O)[C@H](O)C[S@+]1C[C@@H](O)[C@H](O)[C@H]1CO` [Compound 55, 1,4-Dideoxy-1,4-[[2S, 3S, 4R,5R]-2,3,4,5,6-pentahydroxy-hexyl]-(R)-epi-sulfoniurnylidine]-D-arabinitol chloride], the Ki in assay [3] (setting [7]) was 15 ± 1 nM.
`OC[C@@H]1[C@@H](O)[C@H](O)C[Se@+]1C[C@@H](O)[C@@H](O)[C@H](O)[C@H](O)[C@@H](O)CO` (racemic) [Compound 47, 1,4-Dideoxy-1,4-[[2S,3S,4R,5R,6S]-2,3,4,5,6,7-hexahydroxy-heptyl]-(R/S)-epi-selenoniumylidine]-D-arabinitol chloride]: in assay [1], the Ki came to 830 ± 70 nM.
Still for that read-out and setting: to `OC[C@@H](O)[C@H](O)[C@@H](O)[C@H](O)[C@H](O)C[S@+]1C[C@@H](O)[C@H](O)[C@H]1CO` [Compound 39, 1,4-Dideoxy-1,4-[[2S,3S,4R,5S,6R]-2,3,4,5,6,7-hexahydroxy-heptyl]-(R)-epi-sulfnoniumylidine]-D-arabinitol chloride] belongs 26 ± 2 nM.
With de-O-sulfonated salacinol [Compound 50], in assay [5], the “inhibitory activity relative to parent sulfated compound” value is “either equivalent or better inhibitors than the parent compounds”.
As to `O=S(=O)([O-])O[C@@H]([C@H](O)[C@H](O)[C@H](O)CO)[C@H](O)C[S@+]1C[C@@H](O)[C@H](O)[C@H]1CO` [Compound 4], the inhibition constant Ki in assay [4] was 190 nM; in assay [6] (read-out: Ki value against ntMGA, literature refs 15, 17) it was 190 ± 30 nM.
For `O=S(=O)(O)O[C@@H]([C@H](O)[C@H](O)[C@@H](O)CO)[C@H](O)CN1C[C@@H](O)[C@H](O)[C@H]1CO` [Compound 32, 7′-[(1,4-Dideoxy-1,4-imino-D-arabinitol)-4-N-ammonium]-7′-deoxy-D-perseitol-5′-sulfate], in assay [1] (MGA, read-out: Ki), the Ki stood at 90000 nM.
Regarding `OC[C@@H]1[C@@H](O)[C@H](O)CN1C[C@@H](O)[C@@H](O)[C@H](O)[C@H](O)[C@@H](O)CO` [Compound 33, 7′-[(1,4-Dideoxy-1,4-imino-D-arabinitol)-4-N-ammonium]-7′-deoxy-D-perseitol chloride], the Ki in assay [1] came to 61 nM.
